# Assay results published in paper PMC9948168, “Vanillin-Based Indolin-2-one Derivative Bearing a Pyridyl Moiety as a Promising Anti-Breast Cancer Agent via Anti-Estrogenic Activity” (ACS Omega, 2023).
# How the values were obtained:
# Experiment in all cases: NCI-60 one-dose screening
# Format in all cases: cell-based
# SR = details: Homo sapiens, Leukemias, read-out: GI (%)
# Protocol: (§1) Compounds 5a–c and 6a–o were tested using standard NCI protocols for in vitro activity at the National Cancer Institute (NCI, Bethesda, Maryland, USA), wherein compounds were tested using one single concentration of 10 μM against 60 cell lines of nine different cancer types. […] Excellent activity was observed against a single NSCLC cell line, EKVX, for compounds 5a–c (GIs = 77–86%, Table 1) with no observed activity for indoles with substituted vanillin 6a–o.
# (§2) Anticancer activity was tested against 60 cancer cell lines at the NCI, Bethesda, USA. The screening process was done with a single dosage of 10 μM according to NCI protocols published on the NCI website https://dtp.cancer.gov/discovery_development/nci-60/methodology.htm.
# SN12C = details: Homo sapiens, Renal Cancer, read-out: GI (%)
# Protocol: as §1, §2
# CCRF-CEM = details: Homo sapiens, Leukemias, read-out: GI (%)
# Protocol: as §1, §2
# HOP-62 = details: Homo sapiens, HOP-62, Non-Small Cell Lung Cancer, read-out: GI (%)
# Protocol: as §1, §2
# BT-549 = details: Homo sapiens, BT-549, Breast Cancer, read-out: GI (%)
# Protocol: as §1, §2
# IGROV1 = details: Homo sapiens, IGROV-1, IGROV1, Ovarian Cancer, read-out: GI (%)
# Protocol: as §1, §2
# T-47D = details: Homo sapiens, T47D, Breast Cancer, read-out: GI (%)
# Protocol: as §1, §2
# U251 = details: Homo sapiens, U-251, U251, CNS Cancer, read-out: GI (%)
# Protocol: as §1, §2
# RPMI-8226 = details: Homo sapiens, RPMI-8226, Leukemias, read-out: GI (%)
# Protocol: as §1, §2
# NCI-H23 = details: Homo sapiens, NCI-H23, Non-Small Cell Lung Cancer, read-out: GI (%)
# Protocol: as §1, §2
# MOLT-4 = details: Homo sapiens, MOLT-4, Leukemias, read-out: GI (%)
# Protocol: as §1, §2
# HCT-116 = details: Homo sapiens, HCT-116, Colon Cancer, read-out: GI (%)
# Protocol: as §1, §2
# SNB-19 = details: Homo sapiens, SNB-19, CNS Cancer, read-out: GI (%)
# Protocol: as §1, §2
# HS 578T = details: Homo sapiens, Breast Cancer, read-out: GI (%)
# Protocol: as §1, §2
# HOP-92 = details: Homo sapiens, HOP-92, Non-Small Cell Lung Cancer, read-out: GI (%)
# Protocol: as §1, §2
# SK-OV-3 = details: Homo sapiens, SK-OV-3, Ovarian Cancer, read-out: GI (%)
# Protocol: as §1, §2
# SNB-75 = details: Homo sapiens, SNB-75, CNS Cancer, read-out: GI (%)
# Protocol: as §1, §2
# UACC-257 = details: Homo sapiens, UACC-257, Melanoma, read-out: GI (%)
# Protocol: as §1, §2
# SF-295 = details: Homo sapiens, SF-295, CNS Cancer, read-out: GI (%)
# Protocol: as §1, §2
# ACHN = details: Homo sapiens, Renal Cancer, read-out: GI (%)
# Protocol: as §1, §2
# NCI/ADR-RES = details: Homo sapiens, Ovarian Cancer, read-out: GI (%)
# Protocol: as §1, §2
# HT29 = details: Homo sapiens, HT-29, HT29, Colon Cancer, read-out: GI (%)
# Protocol: as §1, §2
# SK-MEL-5 = details: Homo sapiens, SK-MEL-5, Melanoma, read-out: GI (%)
# Protocol: as §1, §2
# NCI-H322M = details: Homo sapiens, Non-Small Cell Lung Cancer, read-out: GI (%)
# Protocol: as §1, §2
# MALME-3M = details: Homo sapiens, Melanoma, read-out: GI (%)
# Protocol: as §1, §2
# LOX IMVI = details: Homo sapiens, Melanoma, read-out: GI (%)
# Protocol: as §1, §2
# KM12 = details: Homo sapiens, KM12, Colon Cancer, read-out: GI (%)
# Protocol: as §1, §2
# SK-MEL-28 = details: Homo sapiens, SK-MEL-28, Melanoma, read-out: GI (%)
# Protocol: as §1, §2
# COLO 205 = details: Homo sapiens, COLO 205, Colon Cancer, read-out: GI (%)
# Protocol: as §1, §2
# NCI-H226 = details: Homo sapiens, NCI-H226, Non-Small Cell Lung Cancer, read-out: GI (%)
# Protocol: as §1, §2
# NCI-H460 = details: Homo sapiens, NCI-H460, Non-Small Cell Lung Cancer, read-out: GI (%)
# Protocol: as §1, §2
# EKVX = details: Homo sapiens, Non-Small Cell Lung Cancer, read-out: GI (%)
# Protocol: as §1, §2
# HL-60(TB) = details: Homo sapiens, Leukemias, read-out: GI (%)
# Protocol: as §1, §2
# NCI-H522 = details: Homo sapiens, NCI-H522, Non-Small Cell Lung Cancer, read-out: GI (%)
# Protocol: as §1, §2
# OVCAR-5 = details: Homo sapiens, OVCAR-5, Ovarian Cancer, read-out: GI (%)
# Protocol: as §1, §2
# DU-145 = details: Homo sapiens, DU-145, Prostate Cancer, read-out: GI (%)
# Protocol: as §1, §2
SMILES,inhibition at 10 µM (SR) [%],inhibition at 10 µM (SN12C) [%],inhibition at 10 µM (CCRF-CEM) [%],inhibition at 10 µM (HOP-62) [%],inhibition at 10 µM (BT-549) [%],inhibition at 10 µM (IGROV1) [%],inhibition at 10 µM (T-47D) [%],inhibition at 10 µM (U251) [%],inhibition at 10 µM (RPMI-8226) [%],inhibition at 10 µM (NCI-H23) [%],inhibition at 10 µM (MOLT-4) [%],inhibition at 10 µM (HCT-116) [%],inhibition at 10 µM (SNB-19) [%],inhibition at 10 µM (HS 578T) [%],inhibition at 10 µM (HOP-92) [%],inhibition at 10 µM (SK-OV-3) [%],inhibition at 10 µM (SNB-75) [%],inhibition at 10 µM (UACC-257) [%],inhibition at 10 µM (SF-295) [%],inhibition at 10 µM (ACHN) [%],further results
COc1cc(/C=C2/C(=O)Nc3ccccc32)ccc1OCc1ccc(Cl)cc1 [6b],6.17,-2.93,5.07,-0.91,-9.1,-2.14,-6.94,-7,2.49,6.66,6.07,13.1,2.91,-4.77,-12.5,-10.5,-3.58,-24.7,-2.92,7.31,inhibition at 10 µM (NCI/ADR-RES): -0.22%; inhibition at 10 µM (HT29): -8.68%; inhibition at 10 µM (SK-MEL-5): -2.87%; inhibition at 10 µM (NCI-H322M): 0.35%; inhibition at 10 µM (MALME-3M): 4.51%; inhibition at 10 µM (LOX IMVI): 0.22%; inhibition at 10 µM (KM12): 0.38%; inhibition at 10 µM (SK-MEL-28): 7.06%; inhibition at 10 µM (COLO 205): -16.1%; inhibition at 10 µM (NCI-H226): 3.35%; inhibition at 10 µM (NCI-H460): 58.9%; inhibition at 10 µM (EKVX): 4.66%; inhibition at 10 µM (HL-60(TB)): -13.4%; inhibition at 10 µM (NCI-H522): 4.25%; inhibition at 10 µM (OVCAR-5): -0.58%; inhibition at 10 µM (DU-145): 1.33%
COc1cc(/C=C2/C(=O)Nc3ccccc32)ccc1OCc1ccc(F)cc1 [6c],9.9,0.05,-2.41,-0.35,-15.7,-1.33,-6.65,-6.26,-6.91,1.03,3.23,-6.72,0.68,-15.2,0.18,-14.1,-5.65,-18.2,-1.97,-2.09,inhibition at 10 µM (NCI/ADR-RES): -2.39%; inhibition at 10 µM (HT29): -4.59%; inhibition at 10 µM (SK-MEL-5): -2.32%; inhibition at 10 µM (NCI-H322M): -3.28%; inhibition at 10 µM (MALME-3M): 0.21%; inhibition at 10 µM (LOX IMVI): 2.75%; inhibition at 10 µM (KM12): -0.58%; inhibition at 10 µM (SK-MEL-28): -10.2%; inhibition at 10 µM (COLO 205): -11.2%; inhibition at 10 µM (NCI-H226): -0.42%; inhibition at 10 µM (NCI-H460): 13.6%; inhibition at 10 µM (EKVX): 2.35%; inhibition at 10 µM (HL-60(TB)): -15.2%; inhibition at 10 µM (NCI-H522): 8.05%; inhibition at 10 µM (OVCAR-5): -6.64%; inhibition at 10 µM (DU-145): -6.42%
COc1ccc(COc2ccc(/C=C3/C(=O)Nc4ccccc43)cc2OC)cc1 [6d],-1.92,0.36,-3.81,-0.03,7.88,-7.35,-12.8,-9.05,-4.4,-2.85,-1.85,-8.46,2.66,-5.29,-1,-19.1,2.65,-15.9,-3.32,7.61,inhibition at 10 µM (NCI/ADR-RES): -6.16%; inhibition at 10 µM (HT29): -7.81%; inhibition at 10 µM (SK-MEL-5): -7.74%; inhibition at 10 µM (NCI-H322M): -5.76%; inhibition at 10 µM (MALME-3M): 0.29%; inhibition at 10 µM (LOX IMVI): 3.43%; inhibition at 10 µM (KM12): -3.98%; inhibition at 10 µM (SK-MEL-28): -6.58%; inhibition at 10 µM (COLO 205): -22.9%; inhibition at 10 µM (NCI-H226): -3.18%; inhibition at 10 µM (NCI-H460): -2.81%; inhibition at 10 µM (EKVX): 0.23%; inhibition at 10 µM (HL-60(TB)): -14.7%; inhibition at 10 µM (NCI-H522): 6.6%; inhibition at 10 µM (OVCAR-5): 0.08%; inhibition at 10 µM (DU-145): -8.53%
COc1cc(/C=C2/C(=O)Nc3ccc(Cl)cc32)ccc1OCc1ccccc1 [6f],-9.47,3.2,1.07,6.15,-5.93,1.82,5.17,2.36,-5.21,1.55,3.2,-13,3.8,3.94,6.71,-9.53,7.95,-3.74,-0.63,3.68,inhibition at 10 µM (NCI/ADR-RES): -2.56%; inhibition at 10 µM (HT29): -2.07%; inhibition at 10 µM (SK-MEL-5): 1.24%; inhibition at 10 µM (NCI-H322M): 2.56%; inhibition at 10 µM (MALME-3M): -1.28%; inhibition at 10 µM (LOX IMVI): -3.97%; inhibition at 10 µM (KM12): -0.66%; inhibition at 10 µM (SK-MEL-28): -4.79%; inhibition at 10 µM (COLO 205): -7.79%; inhibition at 10 µM (NCI-H226): 1.24%; inhibition at 10 µM (NCI-H460): -1.96%; inhibition at 10 µM (EKVX): 4.35%; inhibition at 10 µM (HL-60(TB)): 0.49%; inhibition at 10 µM (NCI-H522): 9.25%; inhibition at 10 µM (OVCAR-5): -0.26%; inhibition at 10 µM (DU-145): -11.6%
COc1ccc(COc2ccc(/C=C3/C(=O)Nc4ccc(Cl)cc43)cc2OC)cc1 [6i],24.1,1.92,1.43,3.08,-13.3,5.39,-5.11,-2.19,1.88,3.99,4.03,4.18,2.61,-2.52,7.13,-8.16,11,-2.09,-0.88,5.13,inhibition at 10 µM (NCI/ADR-RES): 3.06%; inhibition at 10 µM (HT29): -8.29%; inhibition at 10 µM (SK-MEL-5): 0.21%; inhibition at 10 µM (NCI-H322M): 7.01%; inhibition at 10 µM (MALME-3M): 2.07%; inhibition at 10 µM (LOX IMVI): 5.6%; inhibition at 10 µM (KM12): 0.58%; inhibition at 10 µM (SK-MEL-28): -6.77%; inhibition at 10 µM (COLO 205): -10.1%; inhibition at 10 µM (NCI-H226): 3.61%; inhibition at 10 µM (NCI-H460): -2%; inhibition at 10 µM (EKVX): 11.4%; inhibition at 10 µM (HL-60(TB)): 0.37%; inhibition at 10 µM (NCI-H522): 5.36%; inhibition at 10 µM (OVCAR-5): 1.66%; inhibition at 10 µM (DU-145): -12.1%
